Literature values in patent US20110184024A1, “Pharmaceutical Composition Containing Esomeprazole” (CTC BIO, INC., priority 2007, published 2011).

Details: stored for two months at 25° C./60% RH

For COc1ccc2nc([S@@+]([O-])Cc3ncc(C)c(OC)c3C)[nH]c2c1 [esomeprazole free base, (S)-5-methoxy-2-[(4-methoxy-3,5-dimethylpyridin-2-yl)methylsulfinyl]-3H-benzoimidazole], which “total impurities after storage” value is on record?
The value was “about 1%”.
